Data: US10494368B2, “Pesticidally active tetracyclic derivatives with sulfur containing substituents” (Syngenta Participations AG, priority 2015, dated 2019)

Tests used:
Format in all cases: in vivo
[1] = tested on: Euschistus heros (Neotropical Brown Stink Bug); test: Euschistus heros on soybean leaves, spray; conditions: 120 h, application rate 200 ppm, N2 nymphs on soybean leaves, 5 days after infestation, read-out: effect in at least one of the two categories (mortality or growth inhibition)
Experimental: Soybean leaves on agar in 24-well microtiter plates were sprayed with aqueous test solutions prepared from 10′000 ppm DMSO stock solutions. After drying the leaves were infested with N2 nymphs. The samples were assessed for mortality and growth inhibition in comparison to untreated samples 5 days after infestation.
(§1) The following compounds gave an effect of at least 80% in at least one of the two categories (mortality or growth inhibition) at an application rate of 200 ppm: […]

[2] = tested on: Tetranychus urticae (Two-Spotted Spider Mite); test: Tetranychus urticae feeding/contact activity on bean leaf discs; conditions: foliar, 192 h
Experimental: Feeding/contact activity Bean leaf discs on agar in 24-well microtiter plates were sprayed with aqueous test solutions prepared from 10′000 ppm DMSO stock solutions. After drying the leaf discs were infested with a mite population of mixed ages. The samples were assessed for mortality on mixed population (mobile stages) 8 days after infestation.

[3] = tested on: Spodoptera littoralis (Egyptian Cotton Leaf Worm); test: Spodoptera littoralis, uptake by lettuce roots from agar; conditions: 144 h, test rate 12.5 ppm, compound absorbed by lettuce roots, 6 days after infestation, read-out: effect in at least one of the three categories (mortality, anti-feeding, or growth inhibition)
Source text: Test compounds were applied by pipette from 10′000 ppm DMSO stock solutions into 24-well plates and mixed with agar. Lettuce seeds were placed onto the agar and the multi well plate was closed by another plate which contained also agar. After 7 days the compound was absorbed by the roots and the lettuce grew into the lid plate. The lettuce leaves were then cut off into the lid plate. Spodoptera eggs were pipetted through a plastic stencil onto a humid gel blotting paper and the lid plate was closed with it. The samples were assessed for mortality, anti-feedant effect and growth inhibition in comparison to untreated samples 6 days after infestation.
The following compounds gave an effect of at least 80% in at least one of the three categories (mortality, anti-feeding, or growth inhibition) at a test rate of 12.5 ppm: A3, A4, A5, A6, A8, A10, B3, B4, B5 and C2.

[4] = tested on: Spodoptera littoralis (Egyptian Cotton Leaf Worm); test: Spodoptera littoralis on cotton leaf discs, spray; conditions: foliar, 72 h, application rate 200 ppm, L1 larvae on cotton leaf discs, 3 days after infestation
Experimental: Cotton leaf discs were placed onto agar in 24-well microtiter plates and sprayed with aqueous test solutions prepared from 10′000 ppm DMSO stock solutions. After drying the leaf discs were infested with five L1 larvae. The samples were assessed for mortality, anti-feeding effect, and growth inhibition in comparison to untreated samples 3 days after infestation. Control of Spodoptera littoralis by a test sample is given when at least one of the categories mortality, anti-feedant effect, and growth inhibition is higher than the untreated sample.

[5] = tested on: Plutella xylostella (Diamond Back Moth); test: Plutella xylostella on artificial diet; conditions: 120 h, application rate 200 ppm, L2 larvae on artificial diet, 5 days after infestation, read-out: effect in at least one of the two categories (mortality or growth inhibition)
Experimental: (§2) 24-well microtiter plates with artificial diet were treated with aqueous test solutions prepared from 10′000 ppm DMSO stock solutions by pipetting. After drying, the plates were infested with L2 larvae (10 to 15 per well). The samples were assessed for mortality and growth inhibition in comparison to untreated samples 5 days after infestation.
as §1

[6] = tested on: Diabrotica Balteata (Corn Root Worm); test: Diabrotica balteata on maize sprouts, spray; conditions: 96 h, application rate 200 ppm, L2 larvae on maize sprouts, 4 days after infestation, read-out: effect in at least one of the two categories (mortality or growth inhibition)
Experimental: as §2, with “Maize sprouts placed onto an agar layer in 24-well” for “24-well”, “plates” for “plates with artificial diet”, “spraying.” for “pipetting.”, “(6” for “(10”, “10” for “15”, “4” for “5”
as §1

[7] = tested on: Aedes aegypti (Yellow Fever Mosquito); test: Aedes aegypti adult contact test on dried deposits; conditions: application rate 200 ppm in ethanol, adult females, after 48 h and/or 24 h
Experimental: Test solutions, at an application rate of 200 ppm in ethanol, were applied to 12 well tissue culture plates. Once the deposits were dry, five, two to five day old adult female Aedes aegypti were added to each well, and sustained with a 10% sucrose solution in a cotton wool plug. Assessment of knockdown was made one hour after introduction, and mortality was assessed at 24 and 48 hours after introduction.
The following compounds gave at least 80% control of Aedes aegypti after 48 h and/or 24 h: […]

[8] = tested on: Myzus persicae (Green Peach Aphid); test: Myzus persicae intrinsic activity (sucrose solution, Parafilm); conditions: 120 h, test rate 12 ppm, 5 days after infestation
Experimental: Intrinsic activity Test compounds prepared from 10′000 ppm DMSO stock solutions were applied by pipette into 24-well microtiter plates and mixed with sucrose solution. The plates were closed with a stretched Parafilm. A plastic stencil with 24 holes was placed onto the plate and infested pea seedlings were placed directly on the Parafilm. The infested plate was closed with a gel blotting paper and another plastic stencil and then turned upside down. The samples were assessed for mortality 5 days after infestation.

[9] = tested on: Myzus persicae (Green Peach Aphid); test: Myzus persicae feeding/contact activity on sunflower leaf discs; conditions: foliar, 144 h, application rate 200 ppm, aphid population of mixed ages on sunflower leaf discs, 6 days after infestation
Experimental: Feeding/Contact activity Sunflower leaf discs were placed onto agar in a 24-well microtiter plate and sprayed with aqueous test solutions prepared from 10′000 ppm DMSO stock solutions. After drying, the leaf discs were infested with an aphid population of mixed ages. The samples were assessed for mortality 6 days after infestation.

[10] = tested on: Bemisia tabaci (Cotton White Fly); test: Bemisia tabaci feeding/contact activity on cotton leaf discs; conditions: foliar, 144 h, application rate 200 ppm, adult white flies on cotton leaf discs, 6 days after incubation
Experimental: Feeding/contact activity Cotton leaf discs were placed on agar in 24-well microtiter plates and sprayed with aqueous test solutions prepared from 10′000 ppm DMSO stock solutions. After drying the leaf discs were infested with adult white flies. The samples were checked for mortality 6 days after incubation.

CCSc1c(-c2nc3cc(SC(F)(F)F)cnc3n2C)sc2cc(Br)ccc12 [Compound A3, 2-(6-bromo-3-ethylsulfanyl-benzothiophen-2-yl)-3-methyl-6-(trifluoromethylsulfanyl)imidazo[4,5-b]pyridine]
≥ 80%: percent effect (mortality or growth inhibition) at 200 ppm [1] | mortality at 200 ppm [2] | percent effect (mortality, anti-feeding or growth inhibition) at 12.5 ppm [3] | percent control (mortality, anti-feedant effect or growth inhibition) at 200 ppm [4] | percent effect (mortality or growth inhibition) at 200 ppm [5] | percent effect (mortality or growth inhibition) at 200 ppm [6] | pest or weed control at 200 ppm [7]

CCSc1c(-c2nc3cnc(C(F)(F)F)cc3n2C)sc2ccccc12 [Compound B1, 2-(3-ethylsulfanylbenzothiophen-2-yl)-1-methyl-6-(trifluoromethyl)imidazo[4,5-c]pyridine]
≥ 80%: mortality at 12 ppm [8] | percent effect (mortality or growth inhibition) at 200 ppm [5] | percent effect (mortality or growth inhibition) at 200 ppm [6] | mortality at 200 ppm [9]

CCSc1c(-c2nc3cc(C(F)(F)F)ncc3n2C)sc2cc(C(F)(F)F)ccc12 [Compound B3, 2-[3-ethylsulfanyl-6-(trifluoromethyl)benzothiophen-2-yl]-3-methyl-6-(trifluoromethyl)imidazo[4,5-c]pyridine]
≥ 80%: mortality at 12 ppm [8] | percent effect (mortality or growth inhibition) at 200 ppm [1] | percent effect (mortality, anti-feeding or growth inhibition) at 12.5 ppm [3] | percent control (mortality, anti-feedant effect or growth inhibition) at 200 ppm [4] | percent effect (mortality or growth inhibition) at 200 ppm [5] | percent effect (mortality or growth inhibition) at 200 ppm [6] | pest or weed control at 200 ppm [7]

CCS(=O)(=O)c1c(-c2nc3cc(SC(F)(F)F)ncc3n2C)sc2cc(Br)ccc12 [Compound B5, 2-(6-bromo-3-ethylsulfonyl-benzothiophen-2-yl)-3-methyl-6-(trifluoromethylsulfanyl)imidazo[4,5-c]pyridine]
≥ 80%: percent effect (mortality or growth inhibition) at 200 ppm [1] | mortality at 200 ppm [10] | percent effect (mortality, anti-feeding or growth inhibition) at 12.5 ppm [3] | percent control (mortality, anti-feedant effect or growth inhibition) at 200 ppm [4] | percent effect (mortality or growth inhibition) at 200 ppm [5] | percent effect (mortality or growth inhibition) at 200 ppm [6] | mortality at 200 ppm [9] | pest or weed control at 200 ppm [7]
